Laboratory results taken from patent publication US20100049117A1, “Microporator for Porating a Biological Membrane and Integrated Permeant Administering System” (PANTEC BIOSOLUTIONS AG, priority 2005, published 2010).

Experiment: Serum concentration of drug over time after application onto microporated skin (FIG. 10a, 10b)
Type: in vivo
Details: for period of time of maximal serum concentration: transdermal
Source text: FIG. 10a, 10b show the serum concentration of a drug over time, with the same amount of drug but different permeation surfaces.
The drug is entering the permeation surface by passive diffusion. The amount of drug entering the permeation surface is mainly determined by the permeation surface A(t) over time. Therefore, the serum concentration as a function of time can be determined by an appropriate poration of the skin 1 with an initial microporation.
FIG. 10a to 10b show the administration of the same drug, for example 100 mg acetylsalicylic acid, the drug being arranged on the skin 1 as disclosed in FIG. 3c. Depending on the permeation surface A(t) as a function of time, the level of the serum concentration as well as the time period within which the drug is released, can be predescribed. In FIG. 10a the permeation surface A(t), not shown in detail, is chosen such that the maximal serum concentration is about 25 g/l over a short period of time of about two hours. […] A further advantage is that the same amount of drug, e.g. the same patch, applied onto the skin 1, causes a different serum concentration, depending only on the function of the permeation surface A over time. This allows administering the same drug in different ways. This also allows administering the same drug in an individual way, in that the initial permeation surface is created depending on individual parameters of the person the drug is applied to.

CC(=O)Oc1ccccc1C(=O)O [acetylsalicylic acid]
period of time of maximal serum concentration (FIG. 10a, 100 mg): about two | maximal serum concentration (FIG. 10b, 100 mg, fast application (turbo), patch on microporated skin (transdermal)): about 30 g/l | period of time of maximal serum concentration (FIG. 10b, 100 mg, fast application (turbo)): about two | course of serum concentration (oral application OA): heavy fluctuation | course of serum concentration (transdermal application TD): about constant value
